Measured values reported in US9943506B2, “BCL6 inhibitors as anticancer agents” (Cornell University, priority 2013, dated 2018).
Where two headings read alike, the source gives them in different places.

Assays:
[1] = biological target: BCL6-BTB (Homo sapiens, UniProt P41182); experiment: MicroScale Thermophoresis binding to BCL6-BTB; conditions: affinity to the BCL6-BTB domain
Description: (§1) BCL6 is also required for normal development of germinal center (GC) B-cells.
Recombinant BCL6-BTB was labeled using the RED-NHS Labeling kit (NanoTemper Technologies). […] The label:protein ratio was determined using photometry at 650 nm and Bradford reagent. […] The labeled BCL6-BTB was adjusted to 400 nM with PBS (Thermo) buffer supplemented with 0.05% Tween-80 (Fisher scientific). […] After 10 min incubation, approximately 4 μL of each solution was filled into Monolith NT Standard Treated Capillaries (NanoTemper Technologies GmbH). Thermophoresis was measured using a Monolith NT.115 instrument (NanoTemper Technologies GmbH) at an ambient temperature of 25° C. with 5 s/30 s/5 s laser off/on/off times, respectively. Instrument parameters were adjusted with 90% LED power and 40% MST power. Data of three independent experiments were analyzed (NT.Analysis software version 1.5.41, NanoTemper Technologies) using the signal from Thermophoresis.

[2] = biological target: T1, HIC1-BTB (Homo sapiens, UniProt Q14526); conditions: earlier work on 79-6; cited from earlier work
T1 construct: expressed in transfected cells; host or cells: 293T
T1 sequence (Q14526 47-110 limits assumed): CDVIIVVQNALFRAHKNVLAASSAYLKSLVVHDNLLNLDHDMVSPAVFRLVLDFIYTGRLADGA

[3] = biological target: T2, PLZF-BTB (Homo sapiens, UniProt Q05516); conditions: earlier work on 79-6; cited from earlier work
T2 construct: the repression activity of the HIC1, PLZF, or Kaiso BTB domains; expressed in transfected cells; host or cells: 293T
T2 sequence (Q05516 34-96 limits assumed): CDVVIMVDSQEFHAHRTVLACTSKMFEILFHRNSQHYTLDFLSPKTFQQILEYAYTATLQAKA

[4] = tested on: human DLBCL xenografts; conditions: mice; earlier work on 79-6; cited from earlier work
[5] = tested on: mice; conditions: earlier work on 79-6; cited from earlier work
[6] = tested on: Ly3 DLBCL cells; experiment: Growth inhibition of DLBCL cells, Ly3; format: cell-based
Description: (§2) 50,000 cells per well were treated for 48 hours with different concentrations of the compounds in 96 well plates, using DMSO as a control. Then, viability was determined with Cell Titer Blue™ (Promega) and growth inhibition was calculated as the percentage of viable cells with respect to cells treated with DMSO alone. GI50 values were determined by dose-response curves.
(§3) 293T cells were grown in Dulbecco's modified Eagles medium supplemented with 10% fetal bovine serum (FBS) (Gemini Bio-Products, Woodland, Calif.) and 1% penicillin-streptomycin. DLBCL cell lines OCI-Ly1, OCI-Ly1-B50, OCI-Ly7, OCI-Ly10 and OCI-Ly19 were grown in 80% Iscove's medium, 20% FBS and penicillin G/streptomycin. DLBCL cell lines Toledo, Farage, SU-DHL4, DOHH-2, SC-1, RCK8, TMD8, HBL-1, Ly3, Karpas 422 and SU-DHL6 were cultured in 90% RPMI medium, 10% FBS, 2 mM glutamine, 10 mM Hepes and penicillin G/streptomycin. All cell lines were cultured at 37° C. in a humidified atmosphere of 5% CO2.

[7] = tested on: Ly7 DLBCL cells; experiment: Growth inhibition of DLBCL cells, Ly7; format: cell-based
Description: as §2, §3

[8] = tested on: Ly10 DLBCL cells; experiment: Growth inhibition of DLBCL cells, Ly10; format: cell-based
Description: as §2, §3

[9] = tested on: SUDHL6 DLBCL cells; experiment: Growth inhibition of DLBCL cells, SUDHL6; format: cell-based; conditions: Homo sapiens, SU-DHL-6
Description: as §2, §3

[10] = tested on: Karpas 422 DLBCL cells; experiment: Growth inhibition of DLBCL cells, Karpas 422; format: cell-based; conditions: Homo sapiens
Description: as §2, §3

[11] = tested on: Toledo DLBCL cells; experiment: Growth inhibition of DLBCL cells, Toledo; format: cell-based; conditions: Homo sapiens
Description: as §2, §3

[12] = tested on: Ly1B50 DLBCL cells; experiment: Growth inhibition of DLBCL cells, Ly1B50; format: cell-based
Description: as §2, §3

[13] = tested on: Ly1 DLBCL cells; experiment: Growth inhibition of DLBCL cells, Ly1; format: cell-based; conditions: Table 9; Bcl6 dependent; read-out: GI 50 Ly1
Description: as §2, §3

[14] = tested on: WSU-DLCL2 DLBCL cells; experiment: Growth inhibition of DLBCL cells, WSU-DLCL2; format: cell-based; conditions: Homo sapiens, WSUDLCL2; Table 9; Bcl6 independent; read-out: GI 50 WSUDLCL2
Description: as §2

[15] = tested on: Ly4 DLBCL cells; experiment: Growth inhibition of DLBCL cells, Ly4; format: cell-based; conditions: Table 9; Bcl6 independent; read-out: GI 50 Ly4
Description: as §2

[16] = Stability in administration vehicle by NMR spectroscopy; format: physicochemical
Description: First, the stability of the compound in the administration vehicle of 30% PEG-300, 5% Tween-80, and 65% dextrose 5%, was evaluated at room temperature over a period of up to 8 days by NMR spectroscopy.
(§4) The toxic effects of 1085 on mice were then examined. Five C57BL/6 mice were exposed to daily intraperitoneal (IP) administration of increasing doses of the compound ranging from 50 to 150 mg/kg over the course of 7 days, to a cumulative dose of 750 mg/kg, and another five mice were exposed to vehicle only. […] Brain, heart, lung, liver, kidney, bowel, spleen, and bone marrow tissues were examined. Complete peripheral blood counts, biochemistry and liver function tests were normal.

[17] = tested on: mice; experiment: Toxicity of 1085 in mice; format: in vivo; conditions: C57BL/6 mice, daily IP 50 to 150 mg/kg over 7 days
Description: […]. BCL6 is also required for normal development of germinal center (GC) B-cells. […]. Noteworthy, BCL6 dependent aggressive ABC DLBCLs were also sensitive to the in vitro and in vivo treatment with 1085, and even primary human ABC DLBCL samples were sensitive to the treatment with the new BCL6 inhibitor.
as §4, with “[…].” for “The toxic effects of 1085 on mice were then examined.”

[18] = tested on: BCL6 dependent GCB DLBCLs; experiment: GCB DLBCL tumors in vivo
Description: as §1

[19] = tested on: BCL6 dependent aggressive ABC DLBCLs; experiment: ABC DLBCL in vitro and in vivo treatment
Description: as §1

[20] = tested on: primary human ABC DLBCL samples; experiment: Primary human ABC DLBCL samples
[21] = Pharmacokinetics in vitro and in vivo
[22] = tested on: germinal center; experiment: Germinal center formation in immunized mice; conditions: 10 days, 100 mg/kg
[23] = Table 2, BCL-6 dependent, 48 hours
[24] = Table 2, BCL-6 independent, 48 hours

Q: For `O=C(O)CC(C(=O)O)N1C(=O)/C(=C2/C(=O)Nc3ccc(Br)cc32)SC1=S` (stereo not shown) [Compound 79-6], which Kd [1] is on record?
A: ~120 µM

Q: And the “inhibition of HIC1 BTB domain” value [2]?
A: not other BTB domains

Q: And the “inhibition of PLZF BTB domain” value [3]?
A: not other BTB domains

Q: And the “effect on human DLBCL xenografts” value [4]?
A: suppresses human DLBCL xenografts

Q: What about the toxicity [5] of the same compound?
A: not toxic

Q: Which results are given for `C[C@@H](OC(=O)CN1C(=O)C(=O)c2cc(Cl)ccc21)c1ccccc1` [Compound 361]?
A: GI50 ([6]; Table 9, Bcl6 dependent, read-out: GI 50 Ly3): 56 µM; GI50 ([7]; Table 9, Bcl6 dependent, read-out: GI 50 Ly7): 26 µM; GI50 ([8]; Table 9, Bcl6 dependent, read-out: GI 50 Ly10): 166 µM; GI50 ([9]; Table 9, Bcl6 dependent, read-out: GI 50 SUDHL6): 7 µM; GI50 ([10]; Table 9, Bcl6 independent, read-out: GI 50 K422): 20 µM; GI50 ([11]; Table 9, Bcl6 independent, read-out: GI 50 Toledo): 39 µM; GI50 ([12]; Table 9, Bcl6 independent, read-out: GI 50 Ly1B50): 103 µM; GI50 [13]: 24 µM; GI50 [14]: 41 µM; GI50 [15]: 98 µM

Q: What does the source list for `O=C(O)CCN1C(=O)/C(=C2/C(=O)Nc3ccc(Cl)cc32)SC1=S` [Compound 1085, (Z)-3-(5-(5-Chloro-2-oxoindolin-3-ylidene)-4-oxo-2-thioxothiazolidin-3-yl)propanoic acid]?
A: GI50 [6, 23]: > 40 µM; GI50 [7, 23]: 23 ± 9 µM; GI50 [8, 23]: 23.5 ± 0.2 µM; GI50 ([9]; Table 2, BCL-6 dependent, 48 hours, read-out: GI50 SUDH6): 14 ± 7 µM; GI50 ([10]; Table 2, BCL-6 independent, 48 hours, read-out: GI50 Karpas 422): > 40 µM; GI50 [11, 24]: > 40 µM; GI50 [12, 24]: > 40 µM; stability in solution [16]: very stable in solution; stability of the compound in the administration vehicle ([16]; 30% PEG-300, 5% Tween-80, 65% dextrose 5%, room temperature, 8 days, NMR): No significant changes in the structure; complete peripheral blood counts, biochemistry and liver function tests [17]: normal; toxic effects or other indicators of sickness ([17]; cumulative 750 mg/kg): No toxic effects; tumors with tumor regression [18]: 95%; sensitivity of ABC DLBCLs to treatment [19]: sensitive; sensitivity of primary human ABC DLBCL samples [20]: sensitive; pharmacokinetics [21]: favorable pharmacokinetics; effect on germinal center [22]: inhibited the germinal center
